Assay results reported in patent US20050249665A1, “Urea-, glycerate- and, hydroxyamide-headed hydrocarbon chain lyotropic phases forming surfactants” (DBL Australia Pty Ltd., priority 2002, published 2005).
“And” between values parts separate entries of the source, which are not always exact repeats. Identical values can stand only once. “Also recorded” adds a separate entry of the source. Like-named read-outs stand apart in the source and are kept apart here.

Columns and labels:
Assay type in all cases: physicochemical
[1] = Water content of saturated lyotropic phase by Karl Fisher titration; conditions: 300 mg surfactant in excess water, equilibrated at 40° C.; mean of three samples ± SD
Description: The mass of water incorporated in the lyotropic phase was determined by preparing a 300 mg sample of surfactant in excess water, equilibrating at 40° C., and testing the water content of the lyotropic phase by Karl Fisher titration. Values reported are the mean of three separate samples i standard deviation, unless otherwise indicated.

[2] = Flooding experiment: lyotropic phase formed in excess water at 40° C.; also: key: Hll denotes reverse hexagonal phase; conditions: sample maintained at 40° C., crossed polarised light, 200x
Description: (§1) Preliminary assessment of the phase behaviour of a selected compound was conducted using the ‘flooding’ technique. The flooding technique involves placing the compound between a coverslip and microscope slide and introducing water to the sample to establish a water concentration gradient through the sample. […] If the experiment is conducted on a hot stage, the temperature range over which the particular lyotropic phases exist can also be determined. The phase behaviour can be observed under normal or cross-polarised light using an optical microscope. […] For the purpose of the present invention it was especially useful for identifying which phase was present at the boundary with excess water.
For the surfactant to be useful it preferably forms a viscous lyotropic phase in the presence of excess water. The lyotropic phase formed by the surfactant in excess water was determined by flooding experiments, in which a small amount of lipid (typically 5 mg) is placed between a glass microscope slide and coverslip and water introduced to the sample by capillary action, with the sample maintained at 40° C. by means of a hot stage. Observation under crossed polarised light at 200× magnification allows identification of the phase formed by the visible birefringent texture, or lack thereof.

[3] = Lyotropic behaviour: flooding technique on hot stage, optical microscopy under crossed polarised light
Description: as §1

[4] = flooding with water, temperature as stated per example

SMILES | % water (w/w) in saturated lyotropic phase [1] | Phase formed in excess water [2] | Lyotropic phase formed at the interface with water [3, 4] | Temperature at which the hexagonal phase reappears on cooling ([3]; flooding, cooling) [°C] | Temperature at which the hexagonal phase begins to melt ([3]; flooding, heating) [°C] | Temperature at which the hexagonal phase is completely melted / sample completely isotropic ([3]; flooding, heating) | Temperature at which the lyotropic phase forms / begins to form on contact with water ([3]; flooding, heating) | Temperature at which the isotropic cubic phase reforms on cooling ([3]; flooding, cooling) [°C] | Temperature at which the isotropic cubic phase has disappeared ([3]; flooding, heating) [°C] | Lyotropic phase formed at the interface with water [3] | Temperature at which the lyotropic phase forms / begins to form on contact with water [3] [°C]
CC(C)CCCC(C)CCCC(C)CCOC(=O)C(O)CO (centres unmarked) [2,3-Dihydroxypropionic acid 3,7,11-trimethyl-dodecyl ester] | 24.7 ± 0.7 % (w/w) | Hll |  |  |  |  |  |  |  |  | 
CC(C)CCCC(C)CCCC(C)CCCC(C)CC(=O)OCC(O)CO (centres unmarked) [3,7,11,15-tetramethyl-hexadecanoic acid 1-glycerol ester] | 23.1 ± 3.2 % (w/w) | Hll |  |  |  |  |  |  |  |  | 
CC(C)CCCC(C)CCCC(C)CCCC(C)CCN(CCO)C(N)=O (centres unmarked) [Example 1, 1-(3,7,11,15tetramethyl-hexadecyl)-1-(2-hydroxyethyl) urea] |  | Hll | reverse hexagonal phase | 51.1 | 50.9 | 58.1 °C | 20 °C |  |  |  | 
CC(C)CCCC(C)CCCC(C)CCCC(C)CCNC(=O)NCCO (centres unmarked) [Example 2, 1-(3,7,11,15-tetramethyl-hexadecyl)-3-(2-hydroxyethyl) urea] | 14.3 ± 4.6 % (w/w) | Hll | reverse hexagonal phase | 44.1 | 40.4 | 58 °C and 57.3 °C | below 8 °C |  |  |  | 
CC(C)CCCC(C)CCCC(C)CCCC(C)CCNC(N)=O (centres unmarked) [Example 3, 3,7,11,15Tetramethyl-hexadecyl urea] | 28.4 ± 2.3 % (w/w) | Hll | reverse hexagonal phase |  | 72.6 | 82.1 °C | 25 °C |  |  |  | 
CC(C)CCCC(C)CCCC(C)CCNC(N)=O (centres unmarked) [Example 4, 3,7,11-Trimethyl-dodecyl urea] | 8.1 ± 2.5 % (w/w) | Hll | reverse hexagonal phase |  | 55 | > 70 °C | 30 °C |  |  |  | 
CCCCCCCC/C=C\CCCCCCCCOC(=O)C(O)CO (centres unmarked) [Example 5, 2,3-Dihydroxypropionic acid octadec-9-enyl ester] | 16.8 ± 3.9 % (w/w) | Hll |  | 77 | 65 | 80 °C | 30 °C | 40 | 70 |  | 
CC(C)CCCC(C)CCCC(C)CCCC(C)CCOC(=O)C(O)CO (centres unmarked) [Example 6, 2,3-Dihydroxypropionic acid 3,7,11,15-tetramethyl-hexadecyl ester] | 28.7 ± 2.5 % (w/w) | Hll | reverse hexagonal phase |  | ~40 | 48 °C | room temperature |  |  |  | 
CC(C)CCCC(C)CCCC(C)CCCC(C)CC(=O)NC(C)(CO)CO (centres unmarked) [Example 7, 3,7,11,15-tetramethyl-hexadecanoic acid (1,1-bis-hydroxymethyl-ethyl)-amide] |  |  | isotropic phase; also recorded: hexagonal phase |  | 25.5 | 26.7 °C | 10-15 °C |  |  |  | 
CCCCCCCC/C=C\CCCCCCCCNC(=O)NCCO [Example 8, 1-(2-Hydroxyethyl)-3-(cis-octadec-9-enyl) urea] |  |  |  |  |  | ~67 °C |  |  |  | isotropic phase | 59.5
CCCCCCCC/C=C\CCCCCCCCNC(=O)NC(N)=O [Example 9, cis-octadec-9-enyl biuret] |  |  | hexagonal phase |  |  | 107 °C | 85 °C |  |  |  | 
CCCCCCCC/C=C\CCCCCCCCNC(N)=O [Example 10, cis-octadec-9enyl urea] |  |  | reverse hexagonal phase |  |  | 110 °C | 61 °C |  |  |  | 
CCCCC/C=C\C/C=C\CCCCCCCCNC(N)=O [Example 11, cis, cis-octadec-9,12-dienyl urea] |  |  | reverse hexagonal phase |  |  | 92-93 °C | 53 °C |  |  |  | 
